This note sets out measurements from article PMC11062899, “De novo development of small cyclic peptides that are orally bioavailable” (Nature Chemical Biology, 2023).

The assay concerns the target human α-thrombin (Homo sapiens, UniProt P00734). As to the kind of experiment: Sub-library screen for active and permeable cyclic peptides (PAMPA plus thrombin inhibition). The settings on record: crude, slopes normalized to DMSO; for Residual thrombin activity: Top sample: PAMPA acceptor well after 14 h, 5 μM donor; for Residual thrombin activity: Equilibrated sample: donor sample diluted to theoretical equilibrium (1 μM in assay). It counts as biochemical. As for the experimental part:
Linear dithiol peptides were synthesized in fritted 5-ml polypropylene syringes on a MultiPep RSi parallel peptide synthesizer (Intavis) by standard Fmoc-based solid-phase peptide synthesis on cysteamine 2-chlorotrityl resin (Sigma-Aldrich, 8.56000, 1.63 mmol g^−1 loading, 25 μmol scale) as described above with small changes. Amino acids (65 μmol, 2.6 eq.) were activated with HATU (63 μmol, 2.5 eq.) and NMM (145 μmol, 5.8 eq.) in 280 μl of DMF and 5 μl of NMP and let to react with the resin (25 μmol, 1 eq.) for 45 min. Couplings were performed twice for each amino acid. Resin was washed once with 800 μl of DMF, and unreacted amines were capped with 5% acetic anhydride and 6% 2,6-lutidine in 400 μl of DMF for 5 min. The resin was washed six times with 600 μl of DMF, and Fmoc protecting groups were removed by incubating the resin twice with 450 μl of a 20% piperidine solution in DMF for 5 min. The resin was washed six times with 600 μl of DMF before proceeding to the next coupling cycle. After completing the last coupling cycle, the resin was washed six times with […] of DCM. Peptide cleavage and ether precipitation were carried out as described above. After quantification with Ellman’s reagent, 1 μmol of each peptide was transferred in seven replicates to new Nunc 96-well DeepWell polypropylene plates and lyophilized. Peptides were cyclized as described above to afford 20 mM cyclic peptide stock solutions in DMSO containing 160 mM HEPES sodium salt. The amine on cyclic peptides was acylated with 5-chlorothiophene-2-carboxylic acid as follows. A 160 mM solution in 5-chlorothiophene-2-carboxylic acid was prepared in DMSO containing 160 mM HEPES sodium salt, and the acid was activated by mixing in equal volumes with a 160 mM HSTU solution in DMSO. Then, 10 μl of the activated carboxylic acid solutions and the cyclic peptide stocks were placed in Echo Qualified 384-well Low Dead Volume microplates (Labcyte), and 400 nl of cyclic peptide and 400 nl of HSTU-activated 5-chlorothiophene-2-carboxylic acid were transferred combinatorially to 384-well microplates (Greiner, 781076) using the Echo 650 acoustic liquid handler (Labcyte). Plates were centrifuged at 2,000 g for 2 min, and the reaction was allowed to proceed at room temperature for 8 h before addition of 39.2 μl of DMSO with a CERTUS FLEX liquid dispenser (Gyger). A volume of 25 μl of the resulting DMSO solutions was diluted with PBS buffer at pH 7.4 containing 5% DMSO in Nunc 96-well DeepWell polypropylene plates to afford 5 μM solutions of the acylated peptides.
The PAMPA plates were covered with a lid to avoid evaporation and incubated for 14 h at room temperature. Additionally, a diluted donor sample was prepared at the concentration representing theoretical maximum permeability (3 μM). Thereby, 30 μl of the donor sample before incubation was diluted with 20 μl of PBS buffer at pH 7.4 containing 5% DMSO. Volumes of 16 μl of each acceptor well and the diluted donor samples were transferred to a 384-well microplate (Greiner, 781076), and thrombin activity was measured as follows. Human α-thrombin (16 μl, 6 nM, Molecular Innovations) in assay buffer was dispensed into each well using a CERTUS FLEX liquid dispenser (Gyger), and plates were incubated at room temperature for 10 min. Then, 16 μl of a 150 μM fluorogenic thrombin substrate solution (Z-Gly-Gly-Arg-AMC, Bachem) in assay buffer containing 1% DMSO was added to each well, and thrombin inhibition was determined by measuring the fluorescent gain over time. Fluorescence intensity was measured on a Tecan Infinite M200 Pro microplate reader for 30 min at 25 °C with a fluorescent readout every 3 min (excitation: 360 nm, emission: 465 nm). Protease inhibition was calculated by comparing the enzymatic activity to a control without cyclic peptide.

As to `O=C1C[C@H]2CCCN2C(=O)[C@@H](Cc2ccccc2)NC(=O)[C@@H](NC(=O)c2ccc(Cl)s2)CSC/C=C/CSCCN1` [C1-X31-L4], the “Residual thrombin activity: Top sample” value came out at 96.8 and the “Residual thrombin activity: Equilibrated sample” value came to 93.6.

For `Cc1cccc(C[C@@H]2NC(=O)[C@@H](NC(=O)c3ccc(Cl)s3)CCCSCCS(=O)(=O)CCSCCNC(=O)C[C@H]3CCCN3C2=O)c1` [C3-X37-L2], the “Residual thrombin activity: Top sample” value amounted to 92.4 and the “Residual thrombin activity: Equilibrated sample” value is recorded as 51.6.

For the compound `COc1ccc(C[C@@H]2NC(=O)[C@@H](NC(=O)c3ccc(Cl)s3)CCCSCCS(=O)(=O)CCSCCNC(=O)C[C@H]3CCCN3C2=O)cc1` [C3-X33-L2], the “Residual thrombin activity: Top sample” value is listed as 105.7 and the “Residual thrombin activity: Equilibrated sample” value is reported as 97.1.

On to `COc1ccc(C[C@@H]2NC(=O)[C@@H](NC(=O)c3ccc(Cl)s3)CSCCS(=O)(=O)CCSCCNC(=O)C[C@H]3CCCN3C2=O)cc1` [C1-X33-L2], for which the “Residual thrombin activity: Top sample” value is given as 98.0 and the “Residual thrombin activity: Equilibrated sample” value is listed as 99.8.

For the compound `O=C1C[C@H]2CCCN2C(=O)[C@H](Cc2ccc(C(F)(F)F)cc2)NC(=O)[C@@H](NC(=O)c2ccc(Cl)s2)CCSCc2cccc(n2)CSCCN1` [C2-X36-L1], the “Residual thrombin activity: Top sample” value is recorded as 95.5 and the “Residual thrombin activity: Equilibrated sample” value worked out at 97.7.

In the case of `Cc1cccc(C[C@@H]2NC(=O)[C@@H](NC(=O)c3ccc(Cl)s3)CCSCc3cccc(n3)CSCCNC(=O)C[C@H]3CCCN3C2=O)c1` [C2-X37-L1], the “Residual thrombin activity: Top sample” value is 88.2 and the “Residual thrombin activity: Equilibrated sample” value is reported as 83.3.

In the case of `Cc1cccc(C[C@@H]2NC(=O)[C@@H](NC(=O)c3ccc(Cl)s3)CCSCC(=O)CSCCNC(=O)C[C@H]3CCCN3C2=O)c1` [C2-X37-L7], the “Residual thrombin activity: Top sample” value was 99.9 and the “Residual thrombin activity: Equilibrated sample” value amounted to 83.6.

With `N#Cc1ccc(C[C@@H]2NC(=O)[C@@H](NC(=O)c3ccc(Cl)s3)CCCSCC(=O)CSCCNC(=O)C[C@H]3CCCN3C2=O)cc1` [C3-X35-L7], the “Residual thrombin activity: Top sample” value was 106.1 and the “Residual thrombin activity: Equilibrated sample” value is 102.1.

On to `O=C1CSCCNC(=O)C[C@H]2CCCN2C(=O)[C@H](Cc2ccc(C(F)(F)F)cc2)NC(=O)[C@@H](NC(=O)c2ccc(Cl)s2)CCSC1` [C2-X36-L7], for which the “Residual thrombin activity: Top sample” value is reported as 102.7 and the “Residual thrombin activity: Equilibrated sample” value came to 104.5.

On to `Cc1cccc(C[C@@H]2NC(=O)[C@@H](NC(=O)c3ccc(Cl)s3)CCSCc3ccc(cc3)CSCCNC(=O)C[C@H]3CCCN3C2=O)c1` [C2-X37-L3], for which the “Residual thrombin activity: Top sample” value was determined as 100.6 and the “Residual thrombin activity: Equilibrated sample” value stood at 94.8.

In the case of `COc1ccc(C[C@@H]2NC(=O)[C@@H](NC(=O)c3ccc(Cl)s3)CCSCc3cccc(c3)CSCCNC(=O)C[C@H]3CCCN3C2=O)cc1` [C2-X33-L5], the “Residual thrombin activity: Top sample” value was found to be 104.9 and the “Residual thrombin activity: Equilibrated sample” value came to 49.9.

In the case of `O=C1CSCCNC(=O)C[C@H]2CCCN2C(=O)[C@@H](Cc2ccccc2)NC(=O)[C@@H](NC(=O)c2ccc(Cl)s2)CCSC1` [C2-X31-L7], the “Residual thrombin activity: Top sample” value was 102.6 and the “Residual thrombin activity: Equilibrated sample” value stood at 101.7.

For the compound `O=C1C[C@H]2CCCN2C(=O)[C@H](Cc2ccc(Cl)cc2)NC(=O)[C@@H](NC(=O)c2ccc(Cl)s2)CSCc2ccc(cc2)CSCCN1` [C1-X34-L3], the “Residual thrombin activity: Top sample” value amounted to 96.0 and the “Residual thrombin activity: Equilibrated sample” value is listed as 94.6.

Consider `CN1C(=O)[C@@H](NC(=O)c2ccc(Cl)s2)CSCCS(=O)(=O)CCSCCNC(=O)C[C@H]2CCCN2C(=O)[C@@H]1Cc1ccccc1` [C1-X32-L2], for which the “Residual thrombin activity: Top sample” value came out at 96.4 and the “Residual thrombin activity: Equilibrated sample” value came out at 95.3.

Take `O=C1C[C@H]2CCCN2C(=O)[C@@H](Cc2ccccc2)NC(=O)[C@@H](NC(=O)c2ccc(Cl)s2)CCSCc2ccc(cc2)CSCCN1` [C2-X31-L3]: the “Residual thrombin activity: Top sample” value is 96.0 and the “Residual thrombin activity: Equilibrated sample” value came to 100.5.

Take `O=C1C[C@H]2CCCN2C(=O)[C@H](Cc2ccc(Cl)cc2)NC(=O)[C@@H](NC(=O)c2ccc(Cl)s2)CCCSCc2ccccc2CSCCN1` [C3-X34-L6]: the “Residual thrombin activity: Top sample” value worked out at 94.7 and the “Residual thrombin activity: Equilibrated sample” value turned out to be 78.6.

As to `O=C1C[C@H]2CCCN2C(=O)[C@H](Cc2ccccc2)NC(=O)[C@@H](NC(=O)c2ccc(Cl)s2)CCSCc2ccccc2CSCCN1` [C2-X5-L6], the “Residual thrombin activity: Top sample” value turned out to be 87.4 and the “Residual thrombin activity: Equilibrated sample” value is given as 76.1.

As for `N#Cc1ccc(C[C@@H]2NC(=O)[C@@H](NC(=O)c3ccc(Cl)s3)CCSC/C=C/CSCCNC(=O)C[C@H]3CCCN3C2=O)cc1` [C2-X35-L4], the “Residual thrombin activity: Top sample” value is 100.5 and the “Residual thrombin activity: Equilibrated sample” value is given as 100.3.

As for `N#Cc1ccc(C[C@@H]2NC(=O)[C@@H](NC(=O)c3ccc(Cl)s3)CSCc3cccc(c3)CSCCNC(=O)C[C@H]3CCCN3C2=O)cc1` [C1-X35-L5], the “Residual thrombin activity: Top sample” value worked out at 102.4 and the “Residual thrombin activity: Equilibrated sample” value is recorded as 97.2.

Turning to `N#Cc1ccc(C[C@@H]2NC(=O)[C@@H](NC(=O)c3ccc(Cl)s3)CSCc3ccccc3CSCCNC(=O)C[C@H]3CCCN3C2=O)cc1` [C1-X35-L6], the “Residual thrombin activity: Top sample” value is 90.5 and the “Residual thrombin activity: Equilibrated sample” value turned out to be 92.5.

Take `COc1ccc(C[C@@H]2NC(=O)[C@@H](NC(=O)c3ccc(Cl)s3)CCCSCc3cccc(c3)CSCCNC(=O)C[C@H]3CCCN3C2=O)cc1` [C3-X33-L5]: the “Residual thrombin activity: Top sample” value is given as 101.3 and the “Residual thrombin activity: Equilibrated sample” value is 103.0.

In the case of `O=C1C[C@H]2CCCN2C(=O)[C@@H](Cc2ccccc2)NC(=O)[C@@H](NC(=O)c2ccc(Cl)s2)CSCc2cccc(n2)CSCCN1` [C1-X31-L1], the “Residual thrombin activity: Top sample” value is on record as 89.8 and the “Residual thrombin activity: Equilibrated sample” value came out at 93.2.

As to `O=C1C[C@H]2CCCN2C(=O)[C@H](Cc2ccc(C(F)(F)F)cc2)NC(=O)[C@@H](NC(=O)c2ccc(Cl)s2)CCCSC/C=C/CSCCN1` [C3-X36-L4], the “Residual thrombin activity: Top sample” value came out at 103.6 and the “Residual thrombin activity: Equilibrated sample” value amounted to 102.0.

Regarding `O=C1C[C@H]2CCCN2C(=O)[C@H](Cc2ccc(Cl)cc2)NC(=O)[C@@H](NC(=O)c2ccc(Cl)s2)CCCSCc2cccc(c2)CSCCN1` [C3-X34-L5], the “Residual thrombin activity: Top sample” value is recorded as 103.1 and the “Residual thrombin activity: Equilibrated sample” value is 94.9.

Regarding `Cc1cccc(C[C@@H]2NC(=O)[C@@H](NC(=O)c3ccc(Cl)s3)CSCc3cccc(n3)CSCCNC(=O)C[C@H]3CCCN3C2=O)c1` [C1-X37-L1], the “Residual thrombin activity: Top sample” value came out at 86.5 and the “Residual thrombin activity: Equilibrated sample” value is listed as 84.1.

With `O=C1C[C@H]2CCCN2C(=O)[C@H](Cc2ccc(Cl)cc2)NC(=O)[C@@H](NC(=O)c2ccc(Cl)s2)CCSCc2ccccc2CSCCN1` [C2-X34-L6], the “Residual thrombin activity: Top sample” value is listed as 93.6 and the “Residual thrombin activity: Equilibrated sample” value came out at 95.7.

Turning to `O=C1C[C@H]2CCCN2C(=O)[C@H](Cc2ccc(Cl)cc2)NC(=O)[C@@H](NC(=O)c2ccc(Cl)s2)CSCc2cccc(n2)CSCCN1` [C1-X34-L1], the “Residual thrombin activity: Top sample” value stood at 93.9 and the “Residual thrombin activity: Equilibrated sample” value was 92.0.

Take `Cc1cccc(C[C@@H]2NC(=O)[C@@H](NC(=O)c3ccc(Cl)s3)CSCc3cccc(c3)CSCCNC(=O)C[C@H]3CCCN3C2=O)c1` [C1-X37-L5]: the “Residual thrombin activity: Top sample” value came out at 100.9 and the “Residual thrombin activity: Equilibrated sample” value was determined as 88.0.
